Results taken from PubChem BioAssay (NCI).
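Here, GI50 denotes the concentration required for 50% inhibition of growth. Definition used: TGI = concentration required for complete inhibition of growth.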

Legend:
Experiment in all cases: NCI anticancer screen, dose series, 384-well format
ACHN renal = tested on: ACHN renal
T-47D breast = tested on: T-47D breast
MOLT-4 leukemia = tested on: MOLT-4 leukemia
NCI-H322M lung = tested on: NCI-H322M lung
SK-MEL-28 melanoma = tested on: SK-MEL-28 melanoma
TK-10 renal = tested on: TK-10 renal
UACC-257 melanoma = tested on: UACC-257 melanoma
SK-OV-3 ovarian = tested on: SK-OV-3 ovarian
CAKI-1 renal = tested on: CAKI-1 renal
HL-60(TB) leukemia = tested on: HL-60(TB) leukemia
OVCAR-3 ovarian = tested on: OVCAR-3 ovarian
M14 melanoma = tested on: M14 melanoma
A549 NSCLC = tested on: A549 NSCLC
HT29 colon = tested on: HT29 colon
NCI-H23 lung = tested on: NCI-H23 lung
786-0 renal = tested on: 786-0 renal
RXF 393 renal = tested on: RXF 393 renal
OVCAR-8 ovarian = tested on: OVCAR-8 ovarian
OVCAR-4 ovarian = tested on: OVCAR-4 ovarian
COLO 205 colon = tested on: COLO 205 colon
SF-295 CNS = tested on: SF-295 CNS
OVCAR-5 ovarian = tested on: OVCAR-5 ovarian
DU-145 prostate = tested on: DU-145 prostate
HS 578T breast = tested on: HS 578T breast
SNB-19 CNS = tested on: SNB-19 CNS
RPMI-8226 leukemia = tested on: RPMI-8226 leukemia
SW-620 colon = tested on: SW-620 colon
HCT-15 colon = tested on: HCT-15 colon
MDA-MB-468 breast = tested on: MDA-MB-468 breast
IGROV1 ovarian = tested on: IGROV1 ovarian
PC-3 prostate = tested on: PC-3 prostate
NCI-H522 lung = tested on: NCI-H522 lung
SF-268 CNS = tested on: SF-268 CNS
A498 renal = tested on: A498 renal
SR leukemia = tested on: SR leukemia
HOP-92 NSCLC = tested on: HOP-92 NSCLC
MCF7 breast = tested on: MCF7 breast
EKVX NSCLC = tested on: EKVX NSCLC
KM12 colon = tested on: KM12 colon
LOX IMVI melanoma = tested on: LOX IMVI melanoma
K-562 leukemia = tested on: K-562 leukemia
UACC-62 melanoma = tested on: UACC-62 melanoma
BT-549 breast = tested on: BT-549 breast
HCC-2998 colon = tested on: HCC-2998 colon
SN12C renal = tested on: SN12C renal
NCI/ADR-RES ovarian = tested on: NCI/ADR-RES ovarian
MDA-MB-435 melanoma = tested on: MDA-MB-435 melanoma
SF-539 CNS = tested on: SF-539 CNS
UO-31 renal = tested on: UO-31 renal
SNB-75 CNS = tested on: SNB-75 CNS
CCRF-CEM leukemia = tested on: CCRF-CEM leukemia
HOP-62 NSCLC = tested on: HOP-62 NSCLC
MALME-3M melanoma = tested on: MALME-3M melanoma
MDA-MB-231 breast = tested on: MDA-MB-231 breast
NCI-H460 NSCLC = tested on: NCI-H460 NSCLC
NCI-H226 lung = tested on: NCI-H226 lung
SK-MEL-5 melanoma = tested on: SK-MEL-5 melanoma
U251 glioblastoma = tested on: U251 glioblastoma

CCN1C(=O)CCCc2c1ccc(Nc1ncc(Cl)c(NC3[C@@H](C(N)=O)[C@@H]4C=C[C@H]3C4)n1)c2OC (stereo partly specified)
GI50 (ACHN renal): 1200 nM
TGI (ACHN renal): 7310 nM
GI50 (T-47D breast): 1070 nM
TGI (T-47D breast): 4240 nM
GI50 (MOLT-4 leukemia): 137 nM
TGI (MOLT-4 leukemia): 287 nM
GI50 (NCI-H322M lung): 1900 nM
TGI (NCI-H322M lung): 5610 nM
GI50 (SK-MEL-28 melanoma): 1080 nM
TGI (SK-MEL-28 melanoma): 2570 nM
GI50 (TK-10 renal): 1300 nM
TGI (TK-10 renal): 3750 nM
GI50 (UACC-257 melanoma): 677 nM
TGI (UACC-257 melanoma): 2150 nM
GI50 (SK-OV-3 ovarian): 1400 nM
TGI (SK-OV-3 ovarian): 3250 nM
GI50 (CAKI-1 renal): 1230 nM
TGI (CAKI-1 renal): 4500 nM
GI50 (HL-60(TB) leukemia): 254 nM
TGI (HL-60(TB) leukemia): 532 nM
GI50 (OVCAR-3 ovarian): 1020 nM
TGI (OVCAR-3 ovarian): 2770 nM
GI50 (M14 melanoma): 499 nM
TGI (M14 melanoma): 1700 nM
GI50 (A549 NSCLC): 366 nM
TGI (A549 NSCLC): 2550 nM
GI50 (HT29 colon): 450 nM
TGI (HT29 colon): 2000 nM
GI50 (NCI-H23 lung): 430 nM
TGI (NCI-H23 lung): 1620 nM
GI50 ([…]-0 renal): 624 nM
TGI (786-0 renal): 2330 nM
GI50 (RXF 393 renal): 1620 nM
TGI (RXF 393 renal): 3950 nM
GI50 (OVCAR-8 ovarian): 349 nM
TGI (OVCAR-8 ovarian): 1220 nM
GI50 (OVCAR-4 ovarian): 1100 nM
TGI (OVCAR-4 ovarian): 2700 nM
GI50 (COLO 205 colon): 318 nM
TGI (COLO 205 colon): 1190 nM
GI50 (SF-295 CNS): 812 nM
TGI (SF-295 CNS): 8310 nM
GI50 (OVCAR-5 ovarian): 559 nM
TGI (OVCAR-5 ovarian): 2310 nM
GI50 (DU-145 prostate): 577 nM
TGI (DU-145 prostate): 2800 nM
GI50 (HS 578T breast): 437 nM
TGI (HS 578T breast): 1670 nM
GI50 (SNB-19 CNS): 1380 nM
TGI (SNB-19 CNS): 7130 nM
GI50 (RPMI-8226 leukemia): 226 nM
TGI (RPMI-8226 leukemia): 501 nM
GI50 (SW-620 colon): 434 nM
TGI (SW-620 colon): 1720 nM
GI50 (HCT-15 colon): 288 nM
TGI (HCT-15 colon): 1210 nM
GI50 (MDA-MB-468 breast): 365 nM
TGI (MDA-MB-468 breast): 912 nM
GI50 (IGROV1 ovarian): 1320 nM
TGI (IGROV1 ovarian): 2770 nM
GI50 (PC-3 prostate): 1240 nM
TGI (PC-3 prostate): 3810 nM
GI50 (NCI-H522 lung): 385 nM
TGI (NCI-H522 lung): 1310 nM
GI50 (SF-268 CNS): 1220 nM
TGI (SF-268 CNS): 4350 nM
GI50 (A498 renal): 1770 nM
TGI (A498 renal): 11500 nM
GI50 (SR leukemia): 38 nM
TGI (SR leukemia): 126 nM
GI50 (HOP-92 NSCLC): 665 nM
TGI (HOP-92 NSCLC): 3990 nM
GI50 (MCF7 breast): 562 nM
TGI (MCF7 breast): 2340 nM
GI50 (EKVX NSCLC): 927 nM
TGI (EKVX NSCLC): 3260 nM
GI50 (KM12 colon): 1100 nM
TGI (KM12 colon): 8560 nM
GI50 (LOX IMVI melanoma): 334 nM
TGI (LOX IMVI melanoma): 1200 nM
GI50 (K-562 leukemia): 722 nM
TGI (K-562 leukemia): 11600 nM
GI50 (UACC-62 melanoma): 536 nM
TGI (UACC-62 melanoma): 1800 nM
GI50 (BT-549 breast): 509 nM
TGI (BT-549 breast): 1880 nM
GI50 (HCC-2998 colon): 1680 nM
TGI (HCC-2998 colon): 3070 nM
GI50 (SN12C renal): 1210 nM
TGI (SN12C renal): 11100 nM
GI50 (NCI/ADR-RES ovarian): 1070 nM
TGI (NCI/ADR-RES ovarian): 2400 nM
GI50 (MDA-MB-435 melanoma): 728 nM
TGI (MDA-MB-435 melanoma): 3490 nM
GI50 (SF-539 CNS): 475 nM
TGI (SF-539 CNS): 1780 nM
GI50 (UO-31 renal): 1630 nM
TGI (UO-31 renal): 14300 nM
GI50 (SNB-75 CNS): 1100 nM
TGI (SNB-75 CNS): 9580 nM
GI50 (CCRF-CEM leukemia): 220 nM
TGI (CCRF-CEM leukemia): 402 nM
GI50 (HOP-62 NSCLC): 644 nM
TGI (HOP-62 NSCLC): 2990 nM
GI50 (MALME-3M melanoma): 517 nM
TGI (MALME-3M melanoma): 1920 nM
GI50 (MDA-MB-231 breast): 726 nM
TGI (MDA-MB-231 breast): 4400 nM
GI50 (NCI-H460 NSCLC): 355 nM
TGI (NCI-H460 NSCLC): 9120 nM
GI50 (NCI-H226 lung): 1130 nM
TGI (NCI-H226 lung): 4420 nM
GI50 (SK-MEL-5 melanoma): 578 nM
TGI (SK-MEL-5 melanoma): 1950 nM
GI50 (U251 glioblastoma): 632 nM
TGI (U251 glioblastoma): 10900 nM
